Assay results taken from patent US11179397B2, “Imidazopyrimidine derivatives” (Gilead Sciences, Inc., priority 2018, dated 2021).

Columns and labels:
[1] = biological target: SHP-2 full length protein (Homo sapiens (Human), UniProt Q06124); experiment: SHP-2 biochemical DiFMUP pseudosubstrate-fluorogenic assay; conditions: 0.2 nM SHP-2, 1 μM IRS-1 activator peptide, 50 μM DiFMUP; read-out: SHP2 IC50
Summary of the method: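 In-house recombinant full-length SHP-2 preincubated 90 min at room temperature with compounds (1:3 series, 10,000–0.005 nM), then DiFMUP substrate added at 50 μM final for 30 min more. Fluorescence normalised to DMSO wells (100%) and IC50 derived by curve fitting.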

[2] = test system: NCI-H358 cells; experiment: NCI-H358 3D tumor spheroid growth inhibition; assay type: cell-based; conditions: Homo sapiens, NCI-H358, 168 h, 3D spheroids, 7 days, 3D CellTiter Glo; cellular IC50 designated EC50; read-out: H358 EC50
Summary of the method: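 Cells seeded at 1000/well in ultra-low-attachment plates at 37 °C, 5% CO2 to form spheroids, then incubated a further 7 days with compounds. Viability by 3D CellTiter Glo luminescence; % inhibition versus DMSO wells, with normalized cellular IC50 reported as EC50.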

Chain of SHP-2 full length protein (Q06124 whole entry): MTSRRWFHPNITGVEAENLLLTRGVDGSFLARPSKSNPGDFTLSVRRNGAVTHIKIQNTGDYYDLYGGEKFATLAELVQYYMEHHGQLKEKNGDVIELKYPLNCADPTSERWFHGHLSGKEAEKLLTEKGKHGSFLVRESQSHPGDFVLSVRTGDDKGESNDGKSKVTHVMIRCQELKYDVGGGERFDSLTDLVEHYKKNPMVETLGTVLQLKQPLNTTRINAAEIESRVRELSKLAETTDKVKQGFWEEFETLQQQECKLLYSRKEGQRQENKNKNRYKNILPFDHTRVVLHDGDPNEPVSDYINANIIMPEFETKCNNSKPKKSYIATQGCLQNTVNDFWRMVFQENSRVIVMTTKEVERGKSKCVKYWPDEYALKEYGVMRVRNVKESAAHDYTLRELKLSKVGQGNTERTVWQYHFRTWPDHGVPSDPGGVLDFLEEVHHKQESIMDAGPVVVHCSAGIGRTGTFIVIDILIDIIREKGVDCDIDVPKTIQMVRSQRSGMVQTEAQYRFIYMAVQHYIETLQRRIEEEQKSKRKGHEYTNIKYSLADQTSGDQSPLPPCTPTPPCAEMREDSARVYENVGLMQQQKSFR

SMILES | IC50 [1] | EC50 [2]
Cc1nccc(Sc2cnc(N3CCC4(CCC[C@H]4N)CC3)n3ccnc23)c1C [Example 80, (R)-8-(8-((2,3-dimethylpyridin-4-yl)thio)imidazo[1,2-c]pyrimidin-5-yl)-8-azaspiro[4.5]decan-1-amine] | 0.028 µM | 0.27 µM
Cc1c(Sc2cnc(N3CCC4(CCC[C@H]4N)CC3)n3ccnc23)ccnc1Cl [Example 81, (R)-8-(8-((2-chloro-3-methylpyridin-4-yl)thio)imidazo[1,2-c]pyrimidin-5-yl)-8-azaspiro[4.5]decan-1-amine] | 0.0072 µM | 0.082 µM
N[C@@H]1CCCC12CCN(c1ncc(Sc3ccnc4c3CCCC4)c3nccn13)CC2 [Example 82, (R)-8-(8-((5,6,7,8-tetrahydroquinolin-4-yl)thio)imidazo[1,2-c]pyrimidin-5-yl)-8-azaspiro[4.5]decan-1-amine] | 0.011 µM | 0.125 µM
N[C@@H]1CCCC12CCN(c1ncc(Sc3cccn4cnnc34)c3nccn13)CC2 [Example 83, (R)-8-(8-([1,2,4]triazolo[4,3-a]pyridin-8-ylthio)imidazo[1,2-c]pyrimidin-5-yl)-8-azaspiro[4.5]decan-1-amine] | 0.15 µM | > 12.5 µM
N[C@@H]1c2ccccc2CC12CCN(c1ncc(Sc3cccc(Cl)c3Cl)c3nccn13)CC2 [Example 85, (S)-1′-(8-((2,3-dichlorophenyl)thio)imidazo[1,2-c]pyrimidin-5-yl)-1,3-dihydrospiro[indene-2,4′-piperidin]-1-amine] | 0.0021 µM | 0.011 µM
N[C@H]1c2ccccc2CC12CCN(c1ncc(Sc3cccc(Cl)c3Cl)c3nccn13)CC2 [Example 86, (R)-1′-(8-((2,3-dichlorophenyl)thio)imidazo[1,2-c]pyrimidin-5-yl)-1,3-dihydrospiro[indene-2,4′-piperidin]-1-amine] | 0.25 µM | 0.35 µM
N#Cc1cccc2c(Sc3cnc(N4CCC5(CCC[C@H]5N)CC4)n4ccnc34)ccnc12 [Example 88, (R)-4-((5-(1-amino-8-azaspiro[4.5]decan-8-yl)imidazo[1,2-c]pyrimidin-8-yl)thio)quinoline-8-carbonitrile] | 0.018 µM | 0.16 µM
N[C@@H]1CCCC12CCN(c1ncc(Sc3cc(=O)[nH]c4ccccc34)c3nccn13)CC2 [Example 89, (R)-4-((5-(1-amino-8-azaspiro[4.5]decan-8-yl)imidazo[1,2-c]pyrimidin-8-yl)thio)quinolin-2(1H)-one] | > 10 µM | > 12.5 µM
N[C@@H]1CCCC12CCN(c1ncc(Sc3ccnc4ncccc34)c3nccn13)CC2 [Example 90, (R)-8-(8-((1,8-naphthyridin-4-yl)thio)imidazo[1,2-c]pyrimidin-5-yl)-8-azaspiro[4.5]decan-1-amine] | 0.037 µM | 0.41 µM
C[C@H](N)C1CCN(c2ncc(Sc3cccc(Cl)c3Cl)c3nccn23)CC1 [Example 91, (S)-1-(1-(8-((2,3-dichlorophenyl)thio)imidazo[1,2-c]pyrimidin-5-yl)piperidin-4-yl)ethan-1-amine] | 0.17 µM | 2 µM
C[C@@H]1OCC2(CCN(c3ncc(Sc4cc(=O)n(C)c5ccccc45)c4nccn34)CC2)[C@@H]1N [Example 92, 4-((5-((3S,4S)-4-amino-3-methyl-2-oxa-8-azaspiro[4.5]decan-8-yl)imidazo[1,2-c]pyrimidin-8-yl)thio)-1-methylquinolin-2(1H)-one] | > 10 µM | > 12.5 µM
C[C@@H]1OCC2(CCN(c3ncc(Sc4cncc5ccccc45)c4nccn34)CC2)[C@@H]1N [Example 93, (3S,4S)-3-methyl-8-(8-(isoquinolin-4-ylthio)imidazo[1,2-c]pyrimidin-5-yl)-2-oxa-8-azaspiro[4.5]decan-4-amine] | 0.48 µM | > 12.5 µM
C[C@@H](N)C1CCN(c2ncc(Sc3cccc(Cl)c3Cl)c3nccn23)CC1 [Example 94, (R)-1-(1-(8-((2,3-dichlorophenyl)thio)imidazo[1,2-c]pyrimidin-5-yl)piperidin-4-yl)ethan-1-amine] | 0.17 µM | 1 µM
C[C@@H]1OCC2(CCN(c3ncc(Sc4cccc5ncsc45)c4nccn34)CC2)[C@@H]1N [Example 95, (3S,4S)-8-(8-(benzo[d]thiazol-7-ylthio)imidazo[1,2-c]pyrimidin-5-yl)-3-methyl-2-oxa-8-azaspiro[4.5]decan-4-amine] | 0.0052 µM | 0.095 µM
C[C@@H]1OCC2(CCN(c3ncc(Sc4cccc5c(C=O)csc45)c4nccn34)CC2)[C@@H]1N [Example 96, 7-((5-((3S,4S)-4-amino-3-methyl-2-oxa-8-azaspiro[4.5]decan-8-yl)imidazo[1,2-c]pyrimidin-8-yl)thio)benzo[b]thiophene-3-carbaldehyde] | 0.0041 µM | 0.097 µM
C[C@@H]1OCC2(CCN(c3ncc(Sc4ccnc5c4CCC5)c4nccn34)CC2)[C@@H]1N [Example 97, (3S,4S)-8-(8-((6,7-dihydro-5H-cyclopenta[b]pyridin-4-yl)thio)imidazo[1,2-c]pyrimidin-5-yl)-3-methyl-2-oxa-8-azaspiro[4.5]decan-4-amine] | 0.011 µM | 0.11 µM
C[C@@H]1OCC2(CCN(c3ncc(Sc4cccn5nccc45)c4nccn34)CC2)[C@@H]1N [Example 98, (3S,4S)-3-methyl-8-(8-(pyrazolo[1,5-a]pyridin-4-ylthio)imidazo[1,2-c]pyrimidin-5-yl)-2-oxa-8-azaspiro[4.5]decan-4-amine] | 0.016 µM | 0.25 µM
C[C@@H]1OCC2(CCN(c3ncc(Sc4cccc5ccsc45)c4nccn34)CC2)[C@@H]1N [Example 99, (3S,4S)-8-(8-(benzo[b]thiophen-7-ylthio)imidazo[1,2-c]pyrimidin-5-yl)-3-methyl-2-oxa-8-azaspiro[4.5]decan-4-amine] | 0.0041 µM | 0.096 µM
C[C@@H]1OCC2(CCN(c3ncc(Sc4cccc5nc(N)sc45)c4nccn34)CC2)[C@@H]1N [Example 100, (3S,4S)-8-(8-((2-aminobenzo[d]thiazol-7-yl)thio)imidazo[1,2-c]pyrimidin-5-yl)-3-methyl-2-oxa-8-azaspiro[4.5]decan-4-amine] | 0.0067 µM | 0.14 µM
CSc1ccccc1Sc1cnc(N2CCC3(CC2)CO[C@@H](C)[C@H]3N)n2ccnc12 [Example 101, (3S,4S)-3-methyl-8-(8-((2-(methylthio)phenyl)thio)imidazo[1,2-c]pyrimidin-5-yl)-2-oxa-8-azaspiro[4.5]decan-4-amine] | 0.0057 µM | 0.084 µM
C[C@@H]1OCC2(CCN(c3ncc(Sc4ccnc5sccc45)c4nccn34)CC2)[C@@H]1N [Example 102, (3S,4S)-3-methyl-8-(8-(thieno[2,3-b]pyridin-4-ylthio)imidazo[1,2-c]pyrimidin-5-yl)-2-oxa-8-azaspiro[4.5]decan-4-amine] | 0.004 µM | 0.066 µM
C[C@@H]1OCC2(CCN(c3ncc(Sc4ccnc5c(Br)cccc45)c4nccn34)CC2)[C@@H]1N [Example 103] | 0.0046 µM | 0.15 µM
C[C@@H]1OCC2(CCN(c3ncc(Sc4ccnc5c(N)cccc45)c4nccn34)CC2)[C@@H]1N [Example 104, (3S,4S)-8-(8-((8-aminoquinolin-4-yl)thio)imidazo[1,2-c]pyrimidin-5-yl)-3-methyl-2-oxa-8-azaspiro[4.5]decan-4-amine] | 0.0042 µM | 0.074 µM
COC(=O)c1cccc2c(Sc3cnc(N4CCC5(CC4)CO[C@@H](C)[C@H]5N)n4ccnc34)ccnc12 [Example 105, methyl 4-((5-((3S,4S)-4-amino-3-methyl-2-oxa-8-azaspiro[4.5]decan-8-yl)imidazo[1,2-c]pyrimidin-8-yl)thio)quinoline-8-carboxylate] | 0.082 µM | 0.76 µM
C[C@@H]1OCC2(CCN(c3ncc(Sc4ccnc5ccsc45)c4nccn34)CC2)[C@@H]1N [Example 106, (3S,4S)-3-methyl-8-(8-(thieno[3,2-b]pyridin-7-ylthio)imidazo[1,2-c]pyrimidin-5-yl)-2-oxa-8-azaspiro[4.5]decan-4-amine] | 0.0042 µM | 0.039 µM
C[C@@H]1OCC2(CCN(c3ncc(Sc4cccc5cnsc45)c4nccn34)CC2)[C@@H]1N [Example 107, (3S,4S)-8-(8-(benzo[d]isothiazol-7-ylthio)imidazo[1,2-c]pyrimidin-5-yl)-3-methyl-2-oxa-8-azaspiro[4.5]decan-4-amine] | 0.0037 µM | 0.064 µM
CSc1c(Cl)cccc1Sc1cnc(N2CCC3(CC2)CO[C@@H](C)[C@H]3N)n2ccnc12 [Example 108, (3S,4S)-8-(8-((3-chloro-2-(methylthio)phenyl)thio)imidazo[1,2-c]pyrimidin-5-yl)-3-methyl-2-oxa-8-azaspiro[4.5]decan-4-amine] | 0.0033 µM | 0.087 µM
C[C@@H]1OCC2(CCN(c3ncc(Sc4ccnc5c(-n6cncn6)cccc45)c4nccn34)CC2)[C@@H]1N [Example 109, (3S,4S)-8-(8-((8-(1H-1,2,4-triazol-1-yl)quinolin-4-yl)thio)imidazo[1,2-c]pyrimidin-5-yl)-3-methyl-2-oxa-8-azaspiro[4.5]decan-4-amine] | 0.018 µM | 0.26 µM
C[C@@H]1OCC2(CCN(c3ncc(Sc4ccnc5c(C(=O)O)cccc45)c4nccn34)CC2)[C@@H]1N [Example 110, 4-((5-((3S,4S)-4-amino-3-methyl-2-oxa-8-azaspiro[4.5]decan-8-yl)imidazo[1,2-c]pyrimidin-8-yl)thio)quinoline-8-carboxylic acid] | 0.19 µM | 0.93 µM
